Data as given in ChEMBL document CHEMBL4017484, “Nitric Oxide Donor-Based Cancer Therapy: Advances and Prospects” (J Med Chem, 2017).

Assays:
[1] = Acute toxicity in iv dosed BALB/c nude mouse assessed as mortality after 14 days; format: organism-based; details: in vivo
[2] = system: HL-60; test: Antiproliferative activity against human HL60 cells assessed as decrease in cell viability measured after 3 days by MTT assay; format: functional, cell-based; details: HL-60, 72 h
[3] = system: HL-60; test: Antitumor activity against human HL60 cells xenografted in NOD-SCID mouse assessed as reduction in tumor growth at 4 umol/kg, iv measured after 15 to 20 days; format: functional; details: HL-60, iv, read-out: TGI
[4] = system: HT-29; test: Antitumor activity against human HT-29 cells xenografted in athymic nu/nu mouse assessed as reduction in tumor growth at 100 mg/kg administered every day for 18 days relative to vehicle-treated control; format: functional; details: HT-29, 432 h, read-out: TGI
[5] = substrate: CC(=O)N[C@H]1[C@@H]([C@H](O)[C@H](O)CO)O[C@@](O/N=[N+](\[O-])N2CCCC2)(C(=O)O)C[C@@H]1O; test: Activity at Clostridium perfringens neuraminidase assessed as release of nitric oxide by UV-vis spectrophotometer

CC1(C)CC[C@]2(C(=O)O[C@H]3O[C@@H](CO)[C@H](O)[C@@H](O)[C@@H]3O)CC[C@]3(C)C(=CC[C@@H]4[C@@]5(C)CC[C@H](OC(=O)CCC(=O)OC6CCN(/[N+]([O-])=N/O[C@@H]7O[C@H](CO)[C@H](O)[C@H](O)[C@H]7O)CC6)C(C)(C)[C@@H]5CC[C@]43C)[C@@H]2C1
LD50 at 336 h [1]: 173 mg/kg

CCOC(=O)N1CCN(/[N+]([O-])=N/Oc2ccc([N+](=O)[O-])cc2[N+](=O)[O-])CC1
IC50 [2]: 200 to 500 nM | inhibition in vivo at 4 µmol/kg [3]: 50%

O=C(CCCO[N+](=O)[O-])Oc1ccccc1C(=O)Oc1ccc(-c2cc(=S)ss2)cc1
inhibition in vivo at 100 mg/kg [4]: 85%

B1: Sialidase (Clostridium perfringens), P10481 (protein)
chain: MCNKNNTFEKNLDISHKPEPLILFNKDNNIWNSKYFRIPNIQLLNDGTILTFSDIRYNGPDDHAYIDIASARSTDFGKTWSYNIAMKNNRIDSTYSRVMDSTTVITNTGRIILIAGSWNTNGNWAMTTSTRRSDWSVQMIYSDDNGLTWSNKIDLTKDSSKVKNQPSNTIGWLGGVGSGIVMDDGTIVMPAQISLRENNENNYYSLIIYSKDNGETWTMGNKVPNSNTSENMVIELDGALIMSTRYDYSGYRAAYISHDLGTTWEIYEPLNGKILTGKGSGCQGSFIKATTSNGHRIGLISAPKNTKGEYIRDNIAVYMIDFDDLSKGVQEICIPYPEDGNKLGGGYSCLSFKNNHLGIVYEANGNIEYQDLTPYYSLINKQ
Km [5]: 140 µM
